Assay results taken from patent publication US20230190718A1, “METHODS FOR THE TREATMENT OF PANCREATITIS AND PREVENTION OF PANCREATIC CANCER” (BOARD OF REGENTS, THE UNIVERSITY OF TEXAS SYSTEM, priority 2020, published 2023).
Entries after “also recorded” stand apart in the source; their conditions may differ.

Test system: Caerulein-induced pancreatitis
Experiment: Pretreatment with ADM inducers in caerulein-induced pancreatitis: histology (ADM) and CD45 infiltration
Assay type: in vivo, mice
Settings: 40 mg/kg b.i.d oral gavage before and during Caerulein; 24 hours after end of Caerulein injections
Text: Epigenetic modifiers: Recently, the emerging role of epigenetic regulation has led to the development of a wide spectrum of small molecules targeting selectively bromodomain and extra-terminal (BET) protein family which are currently under evaluation in preclinical model of hematological malignancies and solid tumors (Asangani et al., 2014; Delmore et al., 2011; Filippakopoulos et al., 2010). Leveraging the persistent chromatin modifications induced by an acute inflammatory event, the possibility of limiting the detrimental effects of repeated pancreatitis was tested through the administration of INCB054329, a BRD4 inhibitor currently in phase I-II clinical studies in patients with advanced malignancies (Falchook et al., 2019).
Induction of acute pancreatitis. […] Control mice received injections of pyrogen-free PBS. Mice were examined daily for health conditions and sacrificed at the indicated time points by CO2 asphyxiation and cervical dislocation.
DAPI nuclear counterstaining was also performed.

SMILES: Cc1noc(C)c1-c1ccc2[nH]c(=O)n3c2c1OC[C@@H]3c1ccccn1 [INCB054329]
- ADM induction (histological evaluation): massive induction of ADM; also recorded: significant ADM induction
- inflammatory infiltration (CD45 immunostaining): dramatic reduction of inflammatory infiltration; also recorded: strong suppression of inflammation
